Assay results as given in patent publication US11890279B2, “Quinolines that modulate SERCA and their use for treating disease” (Neurodon Corporation, priority 2020, dated 2024).

How the values were obtained:
HEK293 cells = experiment: Protection against thapsigargin (TG)-induced cell death, HEK293; assay type: cell-based, human; conditions: compound 20 μM; thapsigargin 15 μM; 24 hrs
Method in brief: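 Cells pretreated with 20 μM compound for 2 h, then thapsigargin (15 μM HEK293, 1 μM N2a) for 24 h to induce ER stress. Viability by AlamarBlue fluorescence at 2 h as % RFU of control, binned A–D by % cell rescue.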

[1] = system: HeLa cells overexpressing BI-1; experiment: Effect of a SERCA agonist on [Ca2+]ER (ER cameleon); assay type: cell-based; conditions: 24 hrs treatment, ER cameleon YFP/CFP
Experimental: To directly measure ER Ca^2+ content, a genetically encoded Ca^2+ indicator, ER cameleon, was used. HeLa cells were transfected with ER-cameleon encoding plasmid for 2 days before analysis. Cells were treated with a test compound for 24 hrs and imaged in Ca^2+-free HBSS upon addition of thapsigargin to deplete ER stores. Emission ratio imaging of the ER cameleon was accomplished using a 430/24 excitation filter, 450-nm dichroic mirror, and two emission filters (475/40 for CFP and 535/25 for YFP). The fluorescence ratio of YFP/CFP is a measure of relative ER Ca^2+ levels.

liver of ob/ob mice = experiment: Liver expression of gluconeogenesis and lipogenesis genes in ob/ob mice; assay type: in vivo, mouse
Experimental: The expression of key genes involved in gluconeogenesis and lipogenesis was measured. RNA was isolated from liver samples of the ob/ob mice and mRNA expression of the indicated genes was quantified by Real-time PCR using iTaq Fast SYBR Green Supermix with ROX (Bio-Rad) in a 7500 Real-Time PCR systems (Applied Biosystems) using mouse specific primers. Gene expression is normalized to 18s. RNA was isolated using Trizol (Invitrogen). cDNA was generated using High Capacity cDNA Reverse Transcription kit (Applied Biosystems). Real-time PCR was performed with iTaq Fast SYBR Green Supermix with ROX (Bio-Rad) in 7500 Real-Time PCR systems (Applied Biosystems) using mouse specific primers. Gene expression was normalized to 18s. Isolated liver tissue was homogenized in RIPA buffer containing protease inhibitors and phosphatase inhibitors (Roche). Protein samples were matched for their protein concentrations and 30 micrograms of each sample were applied to SDS-PASE and transferred onto nitrocellulose membrane. Membranes were then incubated with the corresponding phosphor or total primary antibodies specific for the desired proteins followed by incubation with appropriate secondary antibodies conjugated to horseradish peroxidase (Pierce) and signal intensities were visualized by Chemiluminescence (Pierce). Films from at least four independent experiments were scanned and densities of the immunoreactive bands were evaluated using NIH Image software. GAPDH (Santa Cruz Biotechnology) was used as a loading control.

[2] = system: APPSWE/PSEN1dE9 double-transgenic mice; experiment: Alzheimer's model behavioral test, Morris water maze; assay type: in vivo, mouse; conditions: 10 mg/kg IP daily for 4 weeks; vs vehicle
Experimental: Briefly, the mice were shown a visible platform that was subsequently removed. The distance that the mice swim searching for the platform was measured, with a shorter distance indicating increased memory. […] Motor coordination, strength, and balance was assessed using the Rotarod test (FIG. 6, B). Mice were first trained until they could remain on a rotarod revolving at 16 rpm for three consecutive 120 sec trials. The next day the mice were placed back on the rotarod for a single trial at 18 rpm (maximum duration 120 sec). The duration a mouse could remain on the rotarod was recorded, and the mouse was then returned to its home cage. The speed of the rotarod was then increased to 21 rpm, and all mice were given another test trial. This process was repeated for rotarod speeds of 24, 27, 30, 33, and 36 rpm. All the speeds were repeated twice for the mice in different groups, interval 30 min every time. The Mean values of two tests were analyzed. The mice maintained longer time on the rotarod with more ability of motor coordination, strength and balance.

6-OHDA-lesioned rats = experiment: Behavioral tests in the 6-OHDA-lesioned rat model of Parkinson's disease; assay type: in vivo; conditions: 10 mg/kg IP once daily
Text: Behavioral tests in the 6-hydroxydopamine (6-OHDA)-lesioned rat model of Parkinson's disease. Male Wistar rats were trained for both the stepping and initiation time (IT) tests 6 days before treatment with 6-OHDA or NaCl (day −6). 5 days before treatment with 6-OHDA, animals from groups 1 to 3 were given vehicles [NaCl or a mixture of DMSO (10%)/tween 80 (10%)/water (80%)] once daily for 16 days. […] All the treatments were given via the IP route, once daily, Sunday excluded. Surgery was performed on DO under ketamine (50 mg/kg) and xylazine (10 mg/kg). Animals received a unilateral injection of 6-OHDA, 6 μl (sigma Aldrich) in the left substantia nigra pars compacta. During surgery, local analgesia was achieved using subcutaneous injections of lidocaine. At the end of surgery, animals were treated with buprenorphine (0.05 mg/kg, S.C.). […] For the IT test, only one of the two forelimbs was left free to move and the time that is necessary to initiate the movement toward the plane surface was recorded, using 180 sec as break-off point. […] In the stepping test, the rat was held by the experimenter and only one of the two forelimbs was left free to move above a plane surface. The other hand fixed the forelimb not to be monitored with one paw touching the table. The animal was then be moved slowly forward by the experimenter. The number of adjusting steps was counted for the right paw. […] In the cylinder test, animals were placed in a Plexiglas cylinder and, immediately, videotaped for 15 min. During this time, the numbers of contacts made on the cylinder wall with both the ipsilateral, the contralateral, and the two paws simultaneously (double contacts) were recorded and then expressed as a percentage of the total number of contacts.

Structure (SMILES): Cc1ccc2cccc(NC(=O)c3ccc(N(C)C)cc3)c2n1 [Compound C18, 4-N,N-Dimethylamino-N-(2-methylquinolin-8-yl)benzamide]
- HEK293 Cells (TG-induced) cell rescue (HEK293 cells): A (A represents a value greater than 50% cell rescue)

Structure (SMILES): Cc1ccc2cccc(NC(=O)c3ccc(OC(C)C)cc3)c2n1 [Compound A12, 4-Isopropoxy-N-(2-methylquinolin-8-yl)benzamide]
- HEK293 Cells (TG-induced) cell rescue (HEK293 cells): A (A represents a value greater than 50% cell rescue)
- [Ca^2+]ER [1]: significantly restored
- expression of PPARα and PGC1α (liver of ob/ob mice): increased
- mRNA expression of G6PAse and PEPCK (liver of ob/ob mice): significantly reduced
- mRNA expression of lipogenic genes (SCD1, DGAT2, FASn, SREBP1c) (liver of ob/ob mice): significantly reduced
- total distance in hidden platform test (Morris water maze) [2]: a decrease in total distance
- initiation time (IT test) (6-OHDA-lesioned rats): reduced
- number of adjusting steps (stepping test) (6-OHDA-lesioned rats): increased
- number of contacts (cylinder test) (6-OHDA-lesioned rats): increased
